Data on 23 molecules can be found in patent publication US10238638B2, “Benzothiazole and benzothiophene compounds” (Bristol-Myers Squibb Company, priority 2015, dated 2019).

Structures are written as SMILES.

The target of this experiment is PAR4 (Homo sapiens (Human), UniProt Q96RI0). Briefly: FLIPR assay in PAR4-expressing HEK293 cells (calcium mobilization). To be noted: H-Ala-Phe(4-F)-Pro-Gly-Trp-Leu-Val-Lys-Asn-Gly-NH2-induced calcium mobilization, PAR4 antagonist activity. Type of experiment: cell-based. The text has this:
The FLIPR assay is an exemplary in vitro assay for measuring the activity of the PAR4 antagonists of the present invention. In this assay, intracellular calcium mobilization is induced in PAR4 expressing cells by a PAR4 agonist and calcium mobilization is monitored.
HEK293 cells stably expressing PAR4 were generated by a standard method of transfection of human PAR4 (F2R23) cDNA expression vector and selected based on PAR4 protein expression or mRNA expression. […] Therefore, the same cells were also used to determine selectivity against PAR1 and agonist activity for both receptors.
FLIPR-based calcium mobilization assay in HEK293 cells was used to measure PAR4 antagonism, agonism, and selectivity against PAR1. […] Counter screens for agonist activity and PAR1 antagonist activity were also performed. Briefly, PAR1/PAR4-expressing HEK293 cells were grown in DMEM (Life Technology, Grand Island, N.Y.) containing 10% heat-inactivated FBS, 1% Penicillin-Streptomycin, 10 μg/mL blasticidin, and 100 μg/mL Zeocin at 37° C. with 5% CO2. Cells were plated overnight prior to the experiment in a black 384-well Purecoat Amine clear bottom plate (Becton Dickinson Biosciences, San Jose, Calif.) at 10,000 cells/well in 30 μL growth medium and incubated in a humidified chamber at 37° C. with 5% CO2 overnight. Prior to compound addition, the cell medium was replaced with 40 μL of 1× calcium and magnesium-containing Hank's Balanced Saline Solution (HBSS) (with 20 mM HEPES) and 1:1000 diluted fluorescent calcium indicator (Codex Biosolutions, Gaithersburg, Md.). After a 30 minute incubation period at 37° C. and a further 30 minute incubation and equilibration period at room temperature, 20 μL test compound (diluted in 1×HBSS buffer) was added at various concentrations at 0.17% dimethyl sulfoxide (DMSO) final concentration. Changes in fluorescence intensity were measured using a Functional Drug Screening System (FDSS, Hamamatsu, Japan) to determine agonist activities. The cells were then incubated for 30 minutes at room temperature followed by addition of 20 μL of agonist peptide for antagonist activity measurement. […] Compound potency was derived from 11-point concentration-response curves.

PAR4, sequence (Q96RI0 18-385): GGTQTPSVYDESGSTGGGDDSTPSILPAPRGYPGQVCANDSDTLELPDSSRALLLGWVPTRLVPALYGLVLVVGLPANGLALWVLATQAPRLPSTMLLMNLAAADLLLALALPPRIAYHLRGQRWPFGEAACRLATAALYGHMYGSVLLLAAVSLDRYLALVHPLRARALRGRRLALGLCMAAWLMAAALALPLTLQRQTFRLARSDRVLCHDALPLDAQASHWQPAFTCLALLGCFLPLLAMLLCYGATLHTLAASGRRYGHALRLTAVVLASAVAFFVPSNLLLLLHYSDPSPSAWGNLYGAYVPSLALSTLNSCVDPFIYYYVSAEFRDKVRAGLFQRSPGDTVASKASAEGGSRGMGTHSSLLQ

Consider `COc1cc(OCc2csc(-c3ccc(C(=O)OC(C)(C)C)cc3)n2)c2sc(-c3cn4nc(C)sc4n3)nc2c1` [Example 1, tert-Butyl 4-(4-(((5-methoxy-2-(2-methylimidazo[2,1-b][1,3,4]thiadiazol-6-yl)benzo[d]thiazol-7-yl)oxy)methyl)thiazol-2-yl)benzoate], for which the IC50 came to 2.4 µM.
`COc1cc(OCc2csc(-c3ccc(C(=O)O)cc3)n2)c2sc(-c3cn4nc(C)sc4n3)nc2c1` [Example 2, 4-(4-(((5-Methoxy-2-(2-methylimidazo[2,1-b][1,3,4]thiadiazol-6-yl)benzo[d]thiazol-7-yl)oxy)methyl)thiazol-2-yl)benzoic acid]: the IC50 came out at 45 µM.
In the case of `COc1cc(OCc2csc(-c3ccc(C(=O)N(C)[C@H]4CCOC4)cc3)n2)c2sc(-c3cn4nc(C)sc4n3)nc2c1` [Example 3, (S)-4-(4-(((5-methoxy-2-(2-methylimidazo[2,1-b][1,3,4]thiadiazol-6-yl)benzo[d]thiazol-7-yl)oxy)methyl)thiazol-2-yl)-N-methyl-N-(tetrahydrofuran-3-yl)benzamide] it was 3.6 µM; in that of `COc1cc(OCc2csc(-c3ccc(C(=O)N4CCC[C@H](O)C4)cc3)n2)c2sc(-c3cn4nc(C)sc4n3)nc2c1` [Example 4], 4.2 µM; in that of `COc1cc(OCc2csc(-c3ccc(C(=O)N(C)CC#N)cc3)n2)c2sc(-c3cn4nc(C)sc4n3)nc2c1` [Example 5, N—(Cyanomethyl)-4-(4-(((5-methoxy-2-(2-methylimidazo[2,1-b][1,3,4]thiadiazol-6-yl)benzo[d]thiazol-7-yl)oxy)methyl)thiazol-2-yl)-N-methylbenzamide], 1.1 µM.
With `COc1cc(OCc2csc(-c3ccc(C(=O)N(C)C)cc3)n2)c2sc(-c3cn4nc(C)sc4n3)nc2c1` [Example 6, 4-(4-(((5-Methoxy-2-(2-methylimidazo[2,1-b][1,3,4]thiadiazol-6-yl)benzo[d]thiazol-7-yl)oxy)methyl)thiazol-2-yl)-N,N-dimethylbenzamide], the half-maximal inhibitory concentration (IC50) is 3.8 µM.
On to `COc1cc(OCc2csc(-c3ccc(C(=O)N(CCO)C(C)(C)C)cc3)n2)c2sc(-c3cn4nc(C)sc4n3)nc2c1` [Example 7], for which the IC50 turned out to be 30 µM.
Take `COc1cc(OCc2csc(-c3ccc(C(=O)N4CC[C@@H](CO)C4)cc3)n2)c2sc(-c3cn4nc(C)sc4n3)nc2c1` [Example 8]: the IC50 was 1.8 µM.
In the case of `COc1cc(OCc2csc(-c3ccc(C(=O)N4CCOC[C@H]4CO)cc3)n2)c2sc(-c3cn4nc(C)sc4n3)nc2c1` [Example 9, (R)-(3-(Hydroxymethyl)morpholino)(4-(4-(((5-methoxy-2-(2-methylimidazo[2,1-b][1,3,4]thiadiazol-6-yl)benzo[d]thiazol-7-yl)oxy)methyl)thiazol-2-yl)phenyl)methanone] it was 0.33 µM; in that of `COc1cc(OCc2csc(-c3ccc(C(=O)N(C)C4CCOCC4)cc3)n2)c2sc(-c3cn4nc(C)sc4n3)nc2c1` [Example 10, 4-(4-(((5-Methoxy-2-(2-methylimidazo[2,1-b][1,3,4]thiadiazol-6-yl)benzo[d]thiazol-7-yl)oxy)methyl)thiazol-2-yl)-N-methyl-N-(tetrahydro-2H-pyran-4-yl)benzamide], 0.98 µM; in that of `COc1cc(OCc2csc(-c3ccc(C(=O)N4CCOC[C@@H]4CO)cc3)n2)c2sc(-c3cn4nc(C)sc4n3)nc2c1` [Example 11, (S)-(3-(Hydroxymethyl)morpholino)(4-(4-(((5-methoxy-2-(2-methylimidazo[2,1-b][1,3,4]thiadiazol-6-yl)benzo[d]thiazol-7-yl)oxy)methyl)thiazol-2-yl)phenyl)methanone], 1.4 µM.
The same measure for `COc1cc(OCc2csc(-c3ccc(C(=O)O)cc3)n2)c2sc(-c3cn4nc(C(C)(F)F)sc4n3)nc2c1` [Example 14, 4-(4-(((2-(2-(1,1-Difluoroethyl)imidazo[2,1-b][1,3,4]thiadiazol-6-yl)-5-methoxybenzo[d]thiazol-7-yl)oxy)methyl)thiazol-2-yl)benzoic acid]: 87 µM.
The same measure for `COc1cc(OCc2csc(-c3ccc(C(=O)N(C)[C@H]4CCOC4)cc3)n2)c2sc(-c3cn4nc(C(C)(F)F)sc4n3)nc2c1` [Example 15, (S)-4-(4-(((2-(2-(1,1-Difluoroethyl)imidazo[2,1-b][1,3,4]thiadiazol-6-yl)-5-methoxybenzo[d]thiazol-7-yl)oxy)methyl)thiazol-2-yl)-N-methyl-N-(tetrahydrofuran-3-yl)benzamide]: 3.7 µM; for `COc1cc(OCc2csc(-c3ccc(C(=O)N4CCC[C@H](O)C4)cc3)n2)c2sc(-c3cn4nc(C(C)(F)F)sc4n3)nc2c1` [Example 16, (S)-(4-(4-(((2-(2-(1,1-Difluoroethyl)imidazo[2,1-b][1,3,4]thiadiazol-6-yl)-5-methoxybenzo[d]thiazol-7-yl)oxy)methyl)thiazol-2-yl)phenyl)(3-hydroxypiperidin-1-yl)methanone]: 15 µM.
Turning to `COc1cc(OCc2csc(-c3ccc(C(=O)N(C)CC#N)cc3)n2)c2sc(-c3cn4nc(C(C)(F)F)sc4n3)nc2c1` [Example 17, N—(Cyanomethyl)-4-(4-(((2-(2-(1,1-difluoroethyl)imidazo[2,1-b][1,3,4]thiadiazol-6-yl)-5-methoxybenzo[d]thiazol-7-yl)oxy)methyl)thiazol-2-yl)-N-methylbenzamide], the half-inhibitory concentration (IC50) turned out to be 2.6 µM.
In the case of `COc1cc(OCc2csc(-c3ccc(C(=O)N(C)C)cc3)n2)c2sc(-c3cn4nc(C(C)(F)F)sc4n3)nc2c1` [Example 18, 4-(4-(((2-(2-(1,1-difluoroethyl)imidazo[2,1-b][1,3,4]thiadiazol-6-yl)-5-methoxybenzo[d]thiazol-7-yl)oxy)methyl)thiazol-2-yl)-N,N-dimethylbenzamide] it was 5.1 µM; in that of `COc1cc(OCc2csc(-c3ccc(C(=O)N(CCO)C(C)(C)C)cc3)n2)c2sc(-c3cn4nc(C(C)(F)F)sc4n3)nc2c1` [Example 19, N-(tert-Butyl)-4-(4-(((2-(2-(1,1-difluoroethyl)imidazo[2,1-b][1,3,4]thiadiazol-6-yl)-5-methoxybenzo[d]thiazol-7-yl)oxy)methyl)thiazol-2-yl)-N-(2-hydroxyethyl)benzamide], 81 µM.
The same measure for `COc1cc(OCc2csc(-c3ccc(C(=O)N4CC[C@@H](CO)C4)cc3)n2)c2sc(-c3cn4nc(C(C)(F)F)sc4n3)nc2c1` [Example 20, (R)-(4-(4-(((2-(2-(1,1-Difluoroethyl)imidazo[2,1-b][1,3,4]thiadiazol-6-yl)-5-methoxybenzo[d]thiazol-7-yl)oxy)methyl)thiazol-2-yl)phenyl)(3-(hydroxymethyl)pyrrolidin-1-yl)methanone]: 1.2 µM.
In the case of `COc1cc(OCc2csc(-c3ccc(C(=O)N4CCOC[C@H]4CO)cc3)n2)c2sc(-c3cn4nc(C(C)(F)F)sc4n3)nc2c1` [Example 21, (R)-(4-(4-(((2-(2-(1,1-Difluoroethyl)imidazo[2,1-b][1,3,4]thiadiazol-6-yl)-5-methoxybenzo[d]thiazol-7-yl)oxy)methyl)thiazol-2-yl)phenyl)(3-(hydroxymethyl)morpholino)methanone] it was 0.92 µM; in that of `COc1cc(OCc2csc(-c3ccc(C(=O)N(C)C4CCOCC4)cc3)n2)c2sc(-c3cn4nc(C(C)(F)F)sc4n3)nc2c1` [Example 22, 4-(4-(((2-(2-(1,1-Difluoroethyl)imidazo[2,1-b][1,3,4]thiadiazol-6-yl)-5-methoxybenzo[d]thiazol-7-yl)oxy)methyl)thiazol-2-yl)-N-methyl-N-(tetrahydro-2H-pyran-4-yl)benzamide], 0.76 µM; in that of `COc1cc(OCc2csc(-c3ccc(C(=O)N(C)[C@H]4CCOC4)cc3)n2)c2sc(-c3cn4nc(C5CC5)sc4n3)nc2c1` [Example 25, (S)-4-(4-(((2-(2-Cyclopropylimidazo[2,1-b][1,3,4]thiadiazol-6-yl)-5-methoxybenzo[d]thiazol-7-yl)oxy)methyl)thiazol-2-yl)-N-methyl-N-(tetrahydrofuran-3-yl)benzamide], 2.6 µM.
For the molecule `COc1cc(OCc2csc(-c3ccc(C(=O)N4CCC[C@H](O)C4)cc3)n2)c2sc(-c3cn4nc(C5CC5)sc4n3)nc2c1` [Example 26, (S)-(4-(4-(((2-(2-Cyclopropylimidazo[2,1-b][1,3,4]thiadiazol-6-yl)-5-methoxybenzo[d]thiazol-7-yl)oxy)methyl)thiazol-2-yl)phenyl)(3-hydroxypiperidin-1-yl)methanone], the IC50 was 9.1 µM.
As to `COc1cc(OCc2csc(-c3ccc(C(=O)N(C)CC#N)cc3)n2)c2sc(-c3cn4nc(C5CC5)sc4n3)nc2c1` [Example 27, N-(Cyanomethyl)-4-(4-(((2-(2-cyclopropylimidazo[2,1-b][1,3,4]thiadiazol-6-yl)-5-methoxybenzo[d]thiazol-7-yl)oxy)methyl)thiazol-2-yl)-N-methylbenzamide], the 50% inhibitory concentration (IC50) came out at 1.2 µM.
